From ChEMBL document CHEMBL1201862, “PubChem BioAssay data set” (2004)
Active and inactive are the calls of the source.

Key:
[1] = molecular target: Mothers against decapentaplegic homolog 3 (Homo sapiens, UniProt P84022); assay: inhibitors of SMAD-driven TGF-beta signaling – dose response (AID 715); type: functional
[2] = system: H9c2; assay: cells; type: functional, cell-based; conditions: Rattus norvegicus, H9c2, Myocardium;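 further: confirmatory concentration-response retest of ultra-high-throughput screening hits for modulation of myocardial damage; cell death induced by hydrogen peroxide oxidative stress; compound pretreatment for 60 min then peroxide exposure for 2 h; potency is for protecting the cells against peroxide damage rather than for killing them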
[3] = molecular target: Estrogen receptor beta (Homo sapiens, UniProt Q92731); assay: blockers of SRC-3 recruitment to ERβ – biochemical, ELISA, streptavidin-HRP readout, orthogonal assay, confirmation (AID 1060)
Estrogen receptor beta, sequence (Q92731 whole entry): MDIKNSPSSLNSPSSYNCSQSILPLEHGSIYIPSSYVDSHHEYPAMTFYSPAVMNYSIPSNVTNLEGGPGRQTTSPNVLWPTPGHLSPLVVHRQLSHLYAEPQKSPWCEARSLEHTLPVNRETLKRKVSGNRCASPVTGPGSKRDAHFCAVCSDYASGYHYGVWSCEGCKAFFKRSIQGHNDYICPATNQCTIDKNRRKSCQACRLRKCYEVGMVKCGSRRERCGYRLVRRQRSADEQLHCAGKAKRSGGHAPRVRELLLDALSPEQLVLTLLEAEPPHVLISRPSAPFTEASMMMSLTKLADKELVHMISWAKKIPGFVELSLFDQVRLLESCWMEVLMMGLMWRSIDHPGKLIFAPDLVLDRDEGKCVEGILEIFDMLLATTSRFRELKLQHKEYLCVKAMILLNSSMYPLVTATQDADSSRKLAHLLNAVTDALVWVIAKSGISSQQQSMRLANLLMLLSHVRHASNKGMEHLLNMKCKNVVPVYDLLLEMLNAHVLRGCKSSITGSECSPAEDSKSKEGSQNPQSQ

[4] = molecular target: Peroxisome proliferator-activated receptor gamma/Nuclear receptor coactivator 2 (Homo sapiens, UniProt P37231); assay: (§1) TR-FRET dose response biochemical High Throughput Screening assay for agonists of the steroid receptor coactivator 2 (SRC-2) recruitment by the peroxisome proliferator-activated receptor gamma (PPAR gamma): non-selective agonists. [Related pubchem assays: 1297, 1032 ]; type: functional
[5] = molecular target: Peroxisome proliferator-activated receptor gamma/Nuclear receptor coactivator 1 (Homo sapiens, UniProt P37231); assay: as §1, with “1 (SRC-1)” for “2 (SRC-2)”, “assays (depositor defined):AID1300, AID1808, AID504735, AID631]” for “assays: 1297, 1032 ]”; type: protein assay
Peroxisome proliferator-activated receptor gamma/Nuclear receptor coactivator 1, sequence (P37231 whole entry): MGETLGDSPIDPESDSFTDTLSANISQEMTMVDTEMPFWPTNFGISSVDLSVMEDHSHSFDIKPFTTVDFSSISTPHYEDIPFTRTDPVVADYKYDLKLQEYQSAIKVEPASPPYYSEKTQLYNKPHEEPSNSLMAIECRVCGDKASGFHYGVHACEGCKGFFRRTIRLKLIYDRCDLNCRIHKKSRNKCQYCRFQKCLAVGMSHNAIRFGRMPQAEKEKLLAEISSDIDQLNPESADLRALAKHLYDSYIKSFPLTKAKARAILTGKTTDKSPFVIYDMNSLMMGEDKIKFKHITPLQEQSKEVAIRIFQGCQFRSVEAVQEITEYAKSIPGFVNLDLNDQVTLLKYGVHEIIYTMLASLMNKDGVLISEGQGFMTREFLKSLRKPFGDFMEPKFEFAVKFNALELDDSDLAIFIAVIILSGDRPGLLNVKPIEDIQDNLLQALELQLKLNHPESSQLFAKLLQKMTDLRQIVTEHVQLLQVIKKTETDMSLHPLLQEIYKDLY
Peroxisome proliferator-activated receptor gamma/Nuclear receptor coactivator 1, sequence (Q15788 whole entry, further chain): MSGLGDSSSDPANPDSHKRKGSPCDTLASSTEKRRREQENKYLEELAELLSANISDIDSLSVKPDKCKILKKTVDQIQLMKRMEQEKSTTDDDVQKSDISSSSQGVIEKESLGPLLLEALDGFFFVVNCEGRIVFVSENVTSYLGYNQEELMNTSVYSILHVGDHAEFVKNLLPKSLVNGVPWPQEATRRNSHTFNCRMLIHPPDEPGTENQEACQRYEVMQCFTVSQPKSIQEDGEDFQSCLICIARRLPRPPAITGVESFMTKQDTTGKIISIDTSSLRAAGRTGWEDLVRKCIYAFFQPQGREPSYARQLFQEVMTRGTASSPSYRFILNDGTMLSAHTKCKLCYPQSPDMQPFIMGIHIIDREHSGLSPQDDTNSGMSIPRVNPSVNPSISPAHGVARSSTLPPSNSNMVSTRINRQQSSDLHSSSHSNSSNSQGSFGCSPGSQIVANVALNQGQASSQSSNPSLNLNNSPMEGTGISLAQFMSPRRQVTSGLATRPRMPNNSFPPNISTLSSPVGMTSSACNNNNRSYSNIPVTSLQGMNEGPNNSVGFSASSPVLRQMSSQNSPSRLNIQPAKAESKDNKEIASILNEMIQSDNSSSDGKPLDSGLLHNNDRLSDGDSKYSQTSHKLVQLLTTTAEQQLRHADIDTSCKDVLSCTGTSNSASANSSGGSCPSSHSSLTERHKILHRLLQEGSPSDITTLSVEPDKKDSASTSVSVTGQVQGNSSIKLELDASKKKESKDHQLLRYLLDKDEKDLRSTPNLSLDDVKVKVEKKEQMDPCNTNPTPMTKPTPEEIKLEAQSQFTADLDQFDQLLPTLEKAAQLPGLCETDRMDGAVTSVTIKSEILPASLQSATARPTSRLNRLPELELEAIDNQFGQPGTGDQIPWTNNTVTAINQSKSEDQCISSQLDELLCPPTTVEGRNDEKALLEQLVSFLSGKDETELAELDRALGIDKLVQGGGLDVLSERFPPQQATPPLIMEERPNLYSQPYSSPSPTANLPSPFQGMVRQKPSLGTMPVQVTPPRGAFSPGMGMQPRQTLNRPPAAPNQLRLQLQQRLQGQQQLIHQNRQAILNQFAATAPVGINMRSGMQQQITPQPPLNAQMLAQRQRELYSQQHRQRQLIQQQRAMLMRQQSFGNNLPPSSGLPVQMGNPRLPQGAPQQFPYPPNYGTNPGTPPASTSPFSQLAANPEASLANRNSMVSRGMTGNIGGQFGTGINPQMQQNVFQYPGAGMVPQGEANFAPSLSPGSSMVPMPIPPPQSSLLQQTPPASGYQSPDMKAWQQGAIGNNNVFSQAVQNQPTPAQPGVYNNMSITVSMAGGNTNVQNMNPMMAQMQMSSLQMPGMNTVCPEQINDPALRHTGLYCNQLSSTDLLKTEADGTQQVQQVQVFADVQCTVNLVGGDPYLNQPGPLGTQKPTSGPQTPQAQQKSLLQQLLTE

[6] = molecular target: Peroxisome proliferator-activated receptor gamma/Nuclear receptor coactivator 3 (Homo sapiens, UniProt P37231); assay: as §1, with “3 (SRC-3)” for “2 (SRC-2)”, “1301 (Confirmation screen.), 1048 (Primary screen.)]” for “1297, 1032 ]”; type: functional
Peroxisome proliferator-activated receptor gamma/Nuclear receptor coactivator 3, sequence (P37231 whole entry): as the sequence (P37231 whole entry) above
Peroxisome proliferator-activated receptor gamma/Nuclear receptor coactivator 3, sequence (Q9Y6Q9 whole entry, further chain): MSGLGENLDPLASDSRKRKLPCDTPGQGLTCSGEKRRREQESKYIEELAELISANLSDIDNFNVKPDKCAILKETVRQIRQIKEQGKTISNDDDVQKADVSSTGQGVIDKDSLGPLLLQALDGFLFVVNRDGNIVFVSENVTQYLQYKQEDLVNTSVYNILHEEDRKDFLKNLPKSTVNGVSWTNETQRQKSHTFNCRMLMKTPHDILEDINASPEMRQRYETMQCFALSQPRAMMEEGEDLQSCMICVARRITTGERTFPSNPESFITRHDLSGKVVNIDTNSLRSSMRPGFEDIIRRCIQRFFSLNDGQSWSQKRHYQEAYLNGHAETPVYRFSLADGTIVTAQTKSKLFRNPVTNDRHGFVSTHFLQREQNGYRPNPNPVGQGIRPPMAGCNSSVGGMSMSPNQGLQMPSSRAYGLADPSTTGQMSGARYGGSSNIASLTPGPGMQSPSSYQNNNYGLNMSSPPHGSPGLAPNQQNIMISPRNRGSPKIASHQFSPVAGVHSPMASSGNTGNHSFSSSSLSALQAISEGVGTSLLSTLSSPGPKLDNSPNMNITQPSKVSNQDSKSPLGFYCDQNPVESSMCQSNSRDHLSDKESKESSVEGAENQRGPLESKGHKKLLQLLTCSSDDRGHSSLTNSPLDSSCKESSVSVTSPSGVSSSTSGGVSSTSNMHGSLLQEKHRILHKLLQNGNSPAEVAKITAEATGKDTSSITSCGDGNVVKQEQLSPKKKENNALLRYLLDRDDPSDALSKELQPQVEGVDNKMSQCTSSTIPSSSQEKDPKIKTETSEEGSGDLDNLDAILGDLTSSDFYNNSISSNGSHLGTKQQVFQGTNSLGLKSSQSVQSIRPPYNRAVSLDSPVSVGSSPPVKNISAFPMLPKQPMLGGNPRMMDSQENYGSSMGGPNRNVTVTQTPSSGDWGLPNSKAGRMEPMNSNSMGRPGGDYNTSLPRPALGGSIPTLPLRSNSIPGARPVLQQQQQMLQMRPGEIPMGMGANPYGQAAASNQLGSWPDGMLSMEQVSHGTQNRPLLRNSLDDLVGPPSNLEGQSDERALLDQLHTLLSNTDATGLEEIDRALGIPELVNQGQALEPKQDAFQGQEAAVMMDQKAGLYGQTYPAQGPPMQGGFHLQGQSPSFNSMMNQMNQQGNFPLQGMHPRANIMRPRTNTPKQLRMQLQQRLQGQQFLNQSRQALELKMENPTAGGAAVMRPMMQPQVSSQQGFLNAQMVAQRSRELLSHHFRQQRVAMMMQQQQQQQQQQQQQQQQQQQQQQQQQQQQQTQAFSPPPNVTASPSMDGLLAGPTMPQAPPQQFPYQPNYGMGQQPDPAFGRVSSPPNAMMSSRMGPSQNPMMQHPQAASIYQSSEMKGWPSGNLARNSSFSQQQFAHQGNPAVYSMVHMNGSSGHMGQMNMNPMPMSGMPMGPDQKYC

[7] = molecular target: T1, Heat shock factor protein 1 (Mus musculus, UniProt P38532); assay: enhancement of HSF1-driven luciferase signal – cell-based, NIH3T3, luminescence, dose retest, confirmation (AID 435004); type: functional;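 further: stress induced by proteasome inhibitor MG132 added 30 min after compound; luciferase reporter driven by HSF1 response element in NIH3T3 cells; actives raise luminescence as potentiators of the MG132 stress response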
T1 sequence (P38532 whole entry): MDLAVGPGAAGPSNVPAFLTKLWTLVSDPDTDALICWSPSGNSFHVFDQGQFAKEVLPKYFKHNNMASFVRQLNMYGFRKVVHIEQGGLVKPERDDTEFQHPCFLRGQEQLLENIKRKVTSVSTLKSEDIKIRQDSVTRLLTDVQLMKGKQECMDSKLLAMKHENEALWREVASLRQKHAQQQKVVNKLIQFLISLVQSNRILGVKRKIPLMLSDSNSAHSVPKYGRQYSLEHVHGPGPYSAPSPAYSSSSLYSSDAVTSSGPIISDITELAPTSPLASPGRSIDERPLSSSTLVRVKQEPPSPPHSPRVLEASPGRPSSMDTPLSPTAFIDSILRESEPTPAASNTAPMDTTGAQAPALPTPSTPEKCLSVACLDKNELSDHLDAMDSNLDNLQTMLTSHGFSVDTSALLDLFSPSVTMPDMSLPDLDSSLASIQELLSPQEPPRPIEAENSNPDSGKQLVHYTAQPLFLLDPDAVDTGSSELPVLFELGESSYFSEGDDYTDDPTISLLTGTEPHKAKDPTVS

[8] = molecular target: T2, Rac GTPase-activating protein 1 (Homo sapiens, UniProt Q9H0H5); assay: blockers of MgcRacGAP-driven Rac1 GTP hydrolysis – biochemical, ADP Hunter fluorescence, primary and confirmatory, confirmation (AID 624330); type: functional
T2 sequence (Q9H0H5 whole entry): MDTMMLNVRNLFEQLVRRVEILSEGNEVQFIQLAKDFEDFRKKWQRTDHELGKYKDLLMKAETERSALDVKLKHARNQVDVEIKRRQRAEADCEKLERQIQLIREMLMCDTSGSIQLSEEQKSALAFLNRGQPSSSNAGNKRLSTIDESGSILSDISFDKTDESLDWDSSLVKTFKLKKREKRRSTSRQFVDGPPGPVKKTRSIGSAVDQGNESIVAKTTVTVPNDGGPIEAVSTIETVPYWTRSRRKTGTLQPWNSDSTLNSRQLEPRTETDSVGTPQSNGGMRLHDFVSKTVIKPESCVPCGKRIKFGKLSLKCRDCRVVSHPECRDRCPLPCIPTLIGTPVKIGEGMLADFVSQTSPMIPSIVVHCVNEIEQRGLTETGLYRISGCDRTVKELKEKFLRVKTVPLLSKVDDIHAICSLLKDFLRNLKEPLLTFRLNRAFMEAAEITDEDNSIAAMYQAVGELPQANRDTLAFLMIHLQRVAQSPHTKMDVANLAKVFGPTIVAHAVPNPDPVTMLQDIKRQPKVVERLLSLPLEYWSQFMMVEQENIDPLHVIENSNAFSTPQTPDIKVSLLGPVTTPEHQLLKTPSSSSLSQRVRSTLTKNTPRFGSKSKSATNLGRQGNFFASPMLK

[9] = mitochondrial function rescue without frataxin homolog – Friedreich's ataxia, plus single-dose screen, dose response (AID 1465); type: functional;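 further: yeast depleted of Yfh1p frataxin homolog grown on glycerol needing respiration; WST-1 tetrazolium dye reduction as measure of cellular dehydrogenase metabolic activity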
[10] = molecular target: Induced myeloid leukemia cell differentiation protein Mcl-1 (Homo sapiens, UniProt Q07820); type: functional

Mothers against decapentaplegic homolog 3, sequence (P84022 whole entry): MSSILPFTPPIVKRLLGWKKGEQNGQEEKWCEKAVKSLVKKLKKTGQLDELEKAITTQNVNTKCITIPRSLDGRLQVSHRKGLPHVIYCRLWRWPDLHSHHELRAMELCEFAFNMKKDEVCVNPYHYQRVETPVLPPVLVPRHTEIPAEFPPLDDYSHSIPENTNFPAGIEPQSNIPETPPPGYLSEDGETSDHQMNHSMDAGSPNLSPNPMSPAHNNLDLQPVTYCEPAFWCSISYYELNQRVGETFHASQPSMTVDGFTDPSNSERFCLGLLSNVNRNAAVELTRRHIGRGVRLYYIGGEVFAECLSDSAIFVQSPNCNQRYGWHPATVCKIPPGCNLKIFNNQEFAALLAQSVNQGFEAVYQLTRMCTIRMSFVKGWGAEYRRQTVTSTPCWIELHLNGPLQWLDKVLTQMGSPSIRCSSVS

IC50 [3]	EC50 [4]	EC50 [5]	EC50 [6]	EC50 [7]	IC50 [8]	IC50 [10]	Structure (SMILES)	IC50 [1]	IC50 [2]	EC50 [9]
–	–	–	–	–	–	–	Cc1ccc(N2C(=O)CS/C2=C(\C(Cl)=C(Cl)Cl)[N+](=O)[O-])cc1	27.7 µM (active)	> 79 µM (inactive)	–
0.0578 µM (not active)	> 8.82 µM (not active)	29.1 µM (inactive)	> 79.4 µM (not active)	> 260 µM (inactive)	–	–	COC(=O)c1ccc(CSc2ncnc3c2oc2ccccc23)o1	14.7 µM (active)	–	–
–	–	–	–	–	16.6 µM (active)	9.66 µM (active)	CC1=NN(C(N)=S)C(=O)C1N=Nc1ccc(O)cc1 (stereo unspecified)	–	–	> 100 µM (active)
